Laboratory results reported in article PMC11714206, “Massively Parallel Screening of Toll/Interleukin‐1 Receptor (TIR)‐Derived Peptides Reveals Multiple Toll‐Like Receptors (TLRs)‐Targeting Immunomodulatory Peptides” (Advanced Science, 2024).

Biological target: T1, MAL^TIR (Homo sapiens, UniProt P58753)
T1 construct: MAL (residues 79–221); 6xHis; made in house; host or cells: E. coli BL21 (DE3)
Test: T‐Surf phage library (P8 and P3) selection against MAL^TIR, four rounds, NGS read counts
Format: binding
Settings: for Population: 4th round of selection against MAL TIR, share of NGS reads; for P8_MAL Rank (after) / P8_MAL Rank (before): P8 library; for P3_MAL Rank (after) / P3_MAL Rank (before): P3 library
Description: T‐Surf libraries were screened against the immobilized TIR domains of two major human TLR adaptor proteins, MAL^TIR and MyD88^TIR, allowing cross‐species selection of TIR‐binding motifs with 190 946 TIR‐derived peptides in a single binding assay (Scheme 1). Enriched phage pools from the fourth round of selection were analyzed using NGS after barcoding the peptide‐coding regions of the phage pools.
Phage display screening was performed by coating two wells of a 96‐well plate (Maxisorp, Thermo Fisher Scientific) with 100 µL of 5 µg mL^−1 TIR domains overnight; then, the coated wells were blocked with 200 µL of blocking buffer (0.2% BSA in PBS) and set aside for 1 h at 4 °C with gentle shaking. Next, 100 µL of the phage library was added to the wells and incubated for 1 h at room temperature (RT; 20 – 22 °C) with gentle shaking. The plate was washed four times with PBS containing 0.5% Tween‐20; the bound phages were eluted by adding 100 µL of 100 mM HCl to each well. The elute was neutralized with 10 µL of 1.0 M Tris‐HCl (pH 11.0). E. coli TG1 cells were grown to the log phase (A600 = ≈0.6), and 1 mL of the culture was incubated with 100 µL of the eluted phages for 30 min at 37 °C, with shaking at 200 rpm. Next, 1 µL of M13KO7 helper phages was added, followed by incubation for 45 min at 37 °C, with shaking. Subsequently, the cells were transferred to 25 mL of 2× yeast extract tryptone/carbenicillin/kanamycin medium and incubated overnight at 37 °C with shaking at 200 rpm. The amplified phages were precipitated with 20% PEG‐8000/2.5 M NaCl to be used for the next round of selection.
The naïve T‐Surf libraries in P8 and P3 and the enriched phage pools after four rounds were barcoded for NGS as previously described.^[ [59] ^] Briefly, 5 µL of the phage pool was used as a template for 20 cycles of a 50 µL PCR reaction using […] each of forward and reverse barcoded primers and PrimeSTAR Max DNA Polymerase. The PCR products were purified using Expin Gel SV (GeneAll). The NGS samples were quantified using qPCR, following the qPCR Quantification Protocol Guide (KAPA Library Quantification kits for Illumina Sequencing Platform), and qualified using the TapeStation High Sensitivity D1000 ScreenTape (Agilent Technologies). The indexed libraries were further sequenced by Macrogen (Seoul, Republic of Korea) using the NovaSeq platform (Illumina) with 100 bp paired‐end reads. The reads were demultiplexed by barcodes and filtered for an average Phred quality score of at least 30, followed by trimming the flanking consensus sequences using Cutadapt (version 2.3). Peptide sequence populations were analyzed according to the read counts.

[1] = P3_MAL pool: P3 T-Surf phage library
[2] = selection against MAL TIR, rank by count after grouping
[3] = selection against MAL TIR, rank by count before grouping
[4] = P3_MAL: rank by count after grouping
[5] = P3_MAL: rank by count before grouping
[6] = 4R selection against MAL, rank after grouping
[7] = 4R selection against MAL, rank before grouping
[8] = P8_MAL pool: P8 T-Surf phage library
[9] = selection against MAL, rank after grouping
[10] = selection against MAL, rank before grouping
[11] = P8_MAL: rank by count after grouping
[12] = P8_MAL: rank by count before grouping
[13] = selection against MAL, rank by count after grouping
[14] = selection against MAL, rank by count before grouping

T1 sequence (P58753 79-221): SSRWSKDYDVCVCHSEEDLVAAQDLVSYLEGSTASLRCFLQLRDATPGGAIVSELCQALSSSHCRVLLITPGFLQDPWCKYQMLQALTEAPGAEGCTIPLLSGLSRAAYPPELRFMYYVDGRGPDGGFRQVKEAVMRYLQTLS

SSFREGLWRLLELIKK
Population [1]: 0.00488%

LFFCESLKQLLRSDGH
P8_MAL Rank (after) [2]: 244
P8_MAL Rank (before) [3]: 2057

RRLKWKDALHQFHSWV
Rank (after) [4]: 124
Rank (before) [5]: 594

YFLQFLVFRRLGNEYV
P8_MAL Rank (after) [6]: 656
P8_MAL Rank (before) [7]: 1513

SSFTSHLYDRLQRSGI
P3_MAL Rank (after) [2]: 224
P3_MAL Rank (before) [3]: 3203

SSFREGLASAGTEQK
Rank (after) [4]: 156
Rank (before) [5]: 1037

CFYEGQLFLALADKSI
P8_MAL Rank (after) [2]: 284
P8_MAL Rank (before) [3]: 1106

NSFRERLRHLMAHSKM
P3_MAL Rank (after) [6]: 620
P3_MAL Rank (before) [7]: 3479

YFLHFLLFSRPETEYI
Rank (after) [4]: 386
Rank (before) [5]: 1336

AFFWEQLKSVLGNPTM
Population [8]: 0.00371%

PNLRTKVPDYLKRTKT
P3_MAL Rank (after) [6]: 608
P3_MAL Rank (before) [7]: 2730

ALLYTFLIHLTHPTNS
P8_MAL Rank (after) [6]: 594
P8_MAL Rank (before) [7]: 1929

PNLRPKVRNYLIRTKT
P3_MAL Rank (after) [9]: 532
P3_MAL Rank (before) [10]: 2672

QFFWDQLKSILGDTRF
P8_MAL Rank (after) [9]: 519
P8_MAL Rank (before) [10]: 2433

WFYERLLSRILRDTKV
Rank (after) [11]: 119
Rank (before) [12]: 1249

AFLYTFLVNLTHPPNF
Rank (after) [11]: 134
Rank (before) [12]: 1827

KLQECRDTLRKIADFF
P3_MAL Rank (after) [9]: 494
P3_MAL Rank (before) [10]: 3627

LFFWESLKQLLRSGGR
Population [8]: 0.0034%

KMQKWKDALYEAANE
P3_MAL Rank (after) [6]: 614
P3_MAL Rank (before) [7]: 3674

RLLKWIETLHQFHSWV
P3_MAL Rank (after) [6]: 653
P3_MAL Rank (before) [7]: 2489

RGFLSHLSNLLQAKDH
P3_MAL Rank (after) [2]: 205
P3_MAL Rank (before) [3]: 2392

LKWGDPRQASKLGYTM
P3_MAL Rank (after) [13]: 761
P3_MAL Rank (before) [14]: 2242

RLLKWKEALQQVHSWV
Rank (after) [4]: 148
Rank (before) [5]: 2470

HFFWFKLKSILGETSF
P8_MAL Rank (after) [9]: 542
P8_MAL Rank (before) [10]: 2394

WFYERLLSLVLRDTKV
Rank (after) [11]: 176
Rank (before) [12]: 1248

AFFWAHLRTVLGKPTI
P8_MAL Rank (after) [9]: 529
P8_MAL Rank (before) [10]: 1657

AFFCTHLKSVLDNPTM
P8_MAL Rank (after) [6]: 623
P8_MAL Rank (before) [7]: 1589

MERVKAFHQRLKTAPI
P3_MAL Rank (after) [2]: 225
P3_MAL Rank (before) [3]: 2932

SEFIQKISLWMNAKIV
Rank (after) [11]: 171
Rank (before) [12]: 2486

LFYGRMVSLILRDTNV
P8_MAL Rank (after) [6]: 639
P8_MAL Rank (before) [7]: 1100

AFLWTQLKNVLGNPTF
Rank (after) [11]: 408
Rank (before) [12]: 1766

SSFREGLWRLPELSKK
Population [1]: 0.00413%

PNLSPKVLNYLMRTKT
Rank (after) [4]: 181
Rank (before) [5]: 2751

WFYARLVRLILRDPKV
Rank (after) [11]: 419
Rank (before) [12]: 1135

RKGDLISDELLIAIEE
P8_MAL Rank (after) [9]: 575
P8_MAL Rank (before) [10]: 2300

LLFWGSLKQLLRSDGR
Rank (after) [11]: 111
Rank (before) [12]: 2159

LFFGASLKQLLRSDGR
P8_MAL Rank (after) [6]: 580
P8_MAL Rank (before) [7]: 2134

CFYERLVNLILRDTKV
P8_MAL Rank (after) [2]: 205
P8_MAL Rank (before) [3]: 1107

YNLISQLYEALHLNRI
P3_MAL Rank (after) [6]: 645
P3_MAL Rank (before) [7]: 1587

RDFVAYLCQALANKGI
P8_MAL Rank (after) [6]: 626
P8_MAL Rank (before) [7]: 2172

WHFHLRLRMHDLLQNI
P3_MAL Rank (after) [13]: 738
P3_MAL Rank (before) [14]: 1300

AFFLAQLKSVMGNPTM
P8_MAL Rank (after) [6]: 645
P8_MAL Rank (before) [7]: 1580

MSMRPGDRLQRSGI
Rank (after) [4]: 454
Rank (before) [5]: 2967

AFFCAQLKSVMGNPTI
P8_MAL Rank (after) [6]: 675
P8_MAL Rank (before) [7]: 1585

HHKGSYGEALAEDEER
P3_MAL Rank (after) [6]: 580
P3_MAL Rank (before) [7]: 2826

SSFSEGLWRRLELSKK
P3_MAL Rank (after) [6]: 594
P3_MAL Rank (before) [7]: 3202

AWFRESLSRRLKGLLT
P3_MAL Rank (after) [13]: 708
P3_MAL Rank (before) [14]: 1810

YAFTGHLHRYLMRTKT
Population [1]: 0.00338%
Rank (after) [4]: 114
Rank (before) [5]: 186

WFYERLVSLMLRDKKV
Rank (after) [11]: 172
Rank (before) [12]: 1269

TFLGHLYNALLRSDGR
P8_MAL Rank (after) [6]: 654
P8_MAL Rank (before) [7]: 2590

WFYERLESLILRDTKV
Population [8]: 0.00278%

HFFLDSTEKHSGRNQL
P8_MAL Rank (after) [2]: 277
P8_MAL Rank (before) [3]: 2392

NFLGLLYNELVQAGLH
P8_MAL Rank (after) [2]: 259
P8_MAL Rank (before) [3]: 2675

LFFWASLKNLLRSAGS
Rank (after) [11]: 389
Rank (before) [12]: 2066

KDPDNYKFAIHERDFP
P3_MAL Rank (after) [2]: 207
P3_MAL Rank (before) [3]: 3542

RNFVRICFRRWRIKA
P8_MAL Rank (after) [13]: 687
P8_MAL Rank (before) [14]: 2235

KEVEGWRDALRKIANIF
Rank (after) [4]: 417
Rank (before) [5]: 3560

WFYECLVSLILRVTKV
P8_MAL Rank (after) [2]: 217
P8_MAL Rank (before) [3]: 1145

DPQDLEWFYERLFSQM
P8_MAL Rank (after) [2]: 234
P8_MAL Rank (before) [3]: 876

YAFTGHLHRYLVQPGG
P3_MAL Rank (after) [2]: 249
P3_MAL Rank (before) [3]: 1409

RLLKWKDALHQFHSWV
Population [1]: 0.0132%

SFYEPQVKMVLRNTTM
P8_MAL Rank (after) [2]: 282
P8_MAL Rank (before) [3]: 1446

RLLKWGYPWFWDRLRFA
Rank (after) [4]: 187
Rank (before) [5]: 907

AFLWTYLSNLMHQPTF
P8_MAL Rank (after) [9]: 483
P8_MAL Rank (before) [10]: 1797

YAFTGHLHQFHSWV
Rank (after) [4]: 480
Rank (before) [5]: 1431

LFFGKALNSCCVAIA
P8_MAL Rank (after) [6]: 649
P8_MAL Rank (before) [7]: 2136

KHCWDRLCYMVNDSSR
P3_MAL Rank (after) [13]: 721
P3_MAL Rank (before) [14]: 3468

YAFTRHLHRYLVQSGV
Rank (after) [4]: 147
Rank (before) [5]: 1468

PNLRPQVLNYLIRTKT
P3_MAL Rank (after) [2]: 208
P3_MAL Rank (before) [3]: 2670

AFLYTFLINLTPPTEY
Rank (after) [11]: 401
Rank (before) [12]: 1858

YFLHLLLFSRPETVYI
P8_MAL Rank (after) [6]: 615
P8_MAL Rank (before) [7]: 1508

GPDTRRKFISFLYKEL
P3_MAL Rank (after) [13]: 683
P3_MAL Rank (before) [14]: 1767

YFLHFMLFRRRGTEYI
Rank (after) [11]: 439
Rank (before) [12]: 1507

AFLGAQLKSVLGKPTM
P8_MAL Rank (after) [9]: 554
P8_MAL Rank (before) [10]: 1775

SSFREGLWRLMELSNK
P3_MAL Rank (after) [6]: 593
P3_MAL Rank (before) [7]: 3169

IFCISCCLAVRKPSI
P8_MAL Rank (after) [2]: 241
P8_MAL Rank (before) [3]: 2434

TRPYLDWPQEPEMHEA
Rank (after) [11]: 434
Rank (before) [12]: 2652

YTALTNSGFHAFSDKD
Rank (after) [11]: 456
Rank (before) [12]: 1556

WFYERLVSLILRVTKV
Population [8]: 0.00309%

PNLRTKVLSYPMRTMT
P3_MAL Rank (after) [13]: 741
P3_MAL Rank (before) [14]: 2707

PEKDTVRVNVIIHNIV
Rank (after) [4]: 470
Rank (before) [5]: 2642

EFVLTFVINLTPRTSF
P8_MAL Rank (after) [9]: 576
P8_MAL Rank (before) [10]: 2041

RGFLSHLLLHLQAKDH
Rank (after) [4]: 395
Rank (before) [5]: 2364

FMSHLYRYLVQRGV
P3_MAL Rank (after) [9]: 546
P3_MAL Rank (before) [10]: 1200

RNLAGLVYDCLTKTGA
Rank (after) [4]: 407
Rank (before) [5]: 2606

LFFWESLKQLLRTVLGKPTM
P8_MAL Rank (after) [6]: 669
P8_MAL Rank (before) [7]: 2109
